Reference: patent publication US20210161999A1, “COMPOSITIONS AND METHODS RELATED TO OVERCOMING INNATE IMMUNE BARRIERS TO CANCER IMMUNOTHERAPY” (Health Research, Inc., priority 2018, published 2021)
“Also recorded” adds a separate entry of the source.

Assays:
TALs = assay: Coculture of TALs with autologous ascites and healthy donor PMN; anti-CD3/CD28-stimulated proliferation; assay type: cell-based, human; settings: Cp40-ASC; TALs from n=3 patients, PMN from healthy donors
Description: FIG. 15. Inhibition of complement C3 activation abrogates the PMN suppressor phenotype induced by malignant effusions. […] The abrogation effect of Cp40 was highly robust, and was observed consistently in at least 10 separate experiments and 15 different ascites samples. […] C) Cryopreserved or fresh TALs (from n=3 patients) were cocultured with autologous ASC and/or PMN from healthy donors. […] Statistics are by ANOVA as compared to +CD3/CD28+ ASC+PMN (*, p<0.05; **, p<0.01; ***, p<0.001).
Inhibition of C3 abrogates neutrophil suppressor phenotype on EOC TALs In patients with metastatic EOC, tumor antigen-specific CD8^+ T cells have impaired effector function and increased co-expression of PD-1 and LAG-3 compared to circulating lymphocytes, and effector function was enhanced with blockade of PD-1 and LAG-3. We confirmed high expression of PD-1 and LAG-3 on TALs from the ascites of patients with newly diagnosed EOC (not shown). We next cocultured cryopreserved or fresh TALs from 3 patients with autologous ascites and/or neutrophils from healthy donors.

[1] = test system: iC3b/C3b deposition on PMN; assay: Deposition of iC3b/C3b on PMN after 1.5 h coculture (clone 3E7/C3b); assay type: cell-based, human; settings: PMN and T cells cocultured in treated ASC for 1.5 h (n=3 ASC)
Procedure: FIG. 16. Complement activation in ASC results in C3b/iC3b deposition on PMN and mediates the PMN suppressor phenotype via the AP and classical pathways. A) Activation of complement in ASC principally occurs via the AP and classical pathways, though inter-patient variability was observed. ASC were assessed for complement activity by WIESLAB ELISA kits that detect formation of C5b-9. Percent (%) activity is in relation to the provided positive control (n=38 ASC, **, p=0.0015; ****, p<0.0001). […] C) PMN and T cells were cocultured in media, ASC, Cp40-ASC, or SCR-ASC for 1.5 h. Deposition of iC3b/C3b (clone 3E7/C3b recognizes both C3b and iC3b) on PMN was increased with ASC versus media, while iC3b/C3b deposition on T cells was unaffected by ASC (not shown). iC3b/C3b binding to PMN was decreased by Cp40-ASC, and unaffected by SCR-ASC (n=3 ASC).

[2] = test system: PMN suppressor phenotype induced by malignant effusions; assay: Coculture of PMN and stimulated T cells with malignant effusions (pleural fluid, ascites) of various metastatic cancers; T cell proliferation; assay type: cell-based, human; settings: Cp40-treated malignant pleural fluid/ascites from various metastatic cancers (n=7)
Description: We analyzed whether the PMN suppressor phenotype induced by EOC ascites would also occur following PMN exposure to other malignant effusions. We observed a similar PMN suppressor phenotype when PMN and anti-CD3/CD28-stimulated T cells were cocultured with malignant pleural and ascites supernatants from patients with a number of metastatic cancers (18/20 samples induced a PMN suppressor or intermediate suppressor phenotype). Using samples that met the suppressor definition (Table 3), the PMN suppressor phenotype induced by malignant pleural and ascites was also abrogated by Cp40-treatment (FIG. 3K).
Patients and Specimens. Participants included healthy donors, control female patients with a benign adnexal mass undergoing resection surgery, and cancer patients with malignant effusions. Healthy donors (n=4) were Caucasian, aged 26-51, and equally divided between sexes. […]
Freshly isolated T cells (1e5) were stimulated with anti-CD3/CD28 Dynabeads (2.5 μl; Thermo Fisher Scientific) and cocultured with autologous PMN (1:1) and ascites supernatants (50% final well volume) in an incubator at 37° C., 5% CO2. […] Cells were harvested onto a Filtermat and counted on a Beta counter. Results are expressed as net cpm [calculated by subtracting the average cpm of unstimulated T cells from the average cpm of stimulated T cells]. […]

PMN = PMN viability (PI neg, Annexin-V neg) after exposure to treated ascites; settings: 24 h exposure to Cp40-treated ascites
Procedure: (§1) Where indicated, cells were pelleted for immunophenotyping and supernatants were saved for ELISA at time points throughout coculture. Viability was assessed by staining with Annexin V and/or PI (Dead Cell Apoptosis Kit, V13241, Thermo Fisher Scientific), following the manufacturer's protocols. For surface phenotyping and intracellular staining, cells were stained in buffer (DPBS, 1% BSA, 2 mM EDTA) and Cytofix/Cytoperm buffer kit (BD Biosciences), respectively, following the manufacturer's protocols. Data were analyzed using FCS Express 6.

[3] = as above; settings: human, PMN (neutrophils) exposed to peptide-treated ascites
Procedure: as §1

Compound: CC[C@H](C)[C@H](NC(=O)[C@H](N)Cc1ccc(O)cc1)C(=O)N[C@H]1CSSC[C@@H](C(=O)N(C)[C@H](C(N)=O)[C@@H](C)CC)NC(=O)[C@H](CCCNC(=N)N)NC(=O)[C@H](Cc2c[nH]cn2)NC(=O)[C@H](C)NC(=O)CN(C)C(=O)[C@H](Cc2c[nH]c3ccccc23)NC(=O)[C@H](CC(=O)O)NC(=O)[C@H](CCC(N)=O)NC(=O)[C@H](Cc2cn(C)c3ccccc23)NC(=O)[C@H](C(C)C)NC1=O [Cp40]
- effect on suppression of stimulated TAL proliferation (TALs): fully abrogated
- iC3b/C3b binding to PMN [1]: reduced; also recorded: decreased
- effect on PMN suppressor phenotype induced by malignant effusions [2]: abrogated by Cp40-treatment in all of the tested samples
- neutrophil viability versus untreated or scramble peptide-treated ascites (PMN): similar
- viability at 24 h, 20 µM [3]: 68 ± 8%
